Experimental data: ChEMBL document CHEMBL1201862, “PubChem BioAssay data set” (2004)
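Briefly, cells in 96-well plates were exposed to five compound concentrations for 48 h, and endpoints were estimated by linear interpolation. The concentration for 50% growth inhibition is given as GI50.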 Active and inactive are the calls of the source. No stated cut-off is given here; in the data, active = GI50 up to about 1.1 µM and inactive = higher.

How the values were obtained:
Assay in all cases: DTP human tumour cell line panel, 48 h
786-0 = test system: 786-0
ACHN = test system: ACHN
COLO 205 = test system: COLO 205
HCC 2998 = test system: HCC 2998
IGROV-1 = test system: IGROV-1
K562 = test system: K562
MOLT-4 = test system: MOLT-4
Malme-3M = test system: Malme-3M
NCI-H460 = test system: NCI-H460
OVCAR-4 = test system: OVCAR-4
SF-268 = test system: SF-268
SNB-19 = test system: SNB-19
TK-10 = test system: TK-10
NCI-H23 = test system: NCI-H23
OVCAR-5 = test system: OVCAR-5

Compound | GI50 (786-0) | GI50 (ACHN) | GI50 (COLO 205) | GI50 (HCC 2998) | GI50 (IGROV-1) | GI50 (K562) | GI50 (MOLT-4) | GI50 (Malme-3M) | GI50 (NCI-H460) | GI50 (OVCAR-4) | GI50 (SF-268) | GI50 (SNB-19) | GI50 (TK-10) | GI50 (NCI-H23) | GI50 (OVCAR-5)
Nc1ccn([C@@H]2C[C@H](CO)[C@@H](O)[C@H]2O)c(=O)n1 | > 57.7 µM (inactive) | > 57.7 µM (inactive) | > 57.7 µM (inactive) | > 57.7 µM (inactive) | > 57.7 µM (inactive) | > 57.7 µM (inactive) | > 57.7 µM (inactive) | > 57.7 µM (inactive) | > 57.7 µM (inactive) | > 57.7 µM (inactive) | > 57.7 µM (inactive) | > 57.7 µM (inactive) | > 57.7 µM (inactive) | – | –
COc1ccc2c(c1)CCc1c-2nc2cc3c(cc2c1O)OCO3 | > 100 µM (inactive) | > 100 µM (inactive) | > 100 µM (inactive) | > 100 µM (inactive) | > 100 µM (inactive) | > 100 µM (inactive) | > 100 µM (inactive) | > 100 µM (inactive) | > 100 µM (inactive) | > 100 µM (inactive) | > 100 µM (inactive) | > 100 µM (inactive) | > 100 µM (inactive) | > 100 µM (inactive) | –
O=c1c(-c2ccccc2)c(O)nc2[nH]c3ccccc3n12 | > 100 µM (inactive) | > 100 µM (inactive) | > 100 µM (inactive) | > 100 µM (inactive) | > 100 µM (inactive) | > 100 µM (inactive) | > 100 µM (inactive) | > 100 µM (inactive) | > 100 µM (inactive) | > 100 µM (inactive) | > 100 µM (inactive) | > 100 µM (inactive) | > 100 µM (inactive) | > 100 µM (inactive) | > 100 µM (inactive)
CNS(=O)(=O)NNS(=O)(=O)c1ccc(Br)cc1 | 63.1 µM (inactive) | > 100 µM (inactive) | > 100 µM (inactive) | > 100 µM (inactive) | > 100 µM (inactive) | > 100 µM (inactive) | – | > 100 µM (inactive) | 42.7 µM (inactive) | > 100 µM (inactive) | > 100 µM (inactive) | 0.309 µM (active) | > 100 µM (inactive) | > 100 µM (inactive) | > 100 µM (inactive)
COc1ccc(OC)c2[s+]snc12 | > 100 µM (inactive) | 91.2 µM (inactive) | > 100 µM (inactive) | > 100 µM (inactive) | > 100 µM (inactive) | 34.5 µM (inactive) | 70.8 µM (inactive) | > 100 µM (inactive) | 36.6 µM (inactive) | 60.4 µM (inactive) | 52.6 µM (inactive) | 65.8 µM (inactive) | > 100 µM (inactive) | 75.2 µM (inactive) | > 100 µM (inactive)
COc1cc2c(cc1OC)C(C(=O)c1cccc(OC)c1OC)C(=O)N(C)CC2 (configuration not stated) | > 100 µM (inactive) | > 100 µM (inactive) | > 100 µM (inactive) | – | > 100 µM (inactive) | > 100 µM (inactive) | > 100 µM (inactive) | > 100 µM (inactive) | > 100 µM (inactive) | > 100 µM (inactive) | > 100 µM (inactive) | > 100 µM (inactive) | > 100 µM (inactive) | > 100 µM (inactive) | –
CC1CCSC(N(C(=O)N(C)c2ccccc2)c2ccccc2)=N1 (configuration not stated) | > 100 µM (inactive) | > 100 µM (inactive) | > 100 µM (inactive) | > 100 µM (inactive) | > 100 µM (inactive) | > 100 µM (inactive) | > 100 µM (inactive) | > 100 µM (inactive) | > 100 µM (inactive) | – | > 100 µM (inactive) | > 100 µM (inactive) | > 100 µM (inactive) | > 100 µM (inactive) | > 100 µM (inactive)
O=C(NC12CC3CCC1CC(C3)C2)[C@@H]1CCCN1C(=O)OCc1ccccc1 (some centres not stated) | 76.7 µM (inactive) | 44 µM (inactive) | 33.5 µM (inactive) | 85.9 µM (inactive) | > 100 µM (inactive) | 33.7 µM (inactive) | 30.1 µM (inactive) | 37.5 µM (inactive) | – | – | 94.8 µM (inactive) | 50.9 µM (inactive) | 85.5 µM (inactive) | 43.3 µM (inactive) | > 100 µM (inactive)
COc1ccc(OCC(=O)O)c2c1CCCC2=O | > 100 µM (inactive) | > 100 µM (inactive) | > 100 µM (inactive) | > 100 µM (inactive) | > 100 µM (inactive) | > 100 µM (inactive) | > 100 µM (inactive) | > 100 µM (inactive) | > 100 µM (inactive) | > 100 µM (inactive) | > 100 µM (inactive) | > 100 µM (inactive) | > 100 µM (inactive) | > 100 µM (inactive) | > 100 µM (inactive)
COC(=O)C12C3C4C5C3(C#N)C1C5(C(=O)OC)C42C(=O)N(C(C)C)C(C)C (configuration not stated) | > 100 µM (inactive) | > 100 µM (inactive) | > 60.4 µM (inactive) | > 96.6 µM (inactive) | > 100 µM (inactive) | > 49.4 µM (inactive) | 66.2 µM (inactive) | > 100 µM (inactive) | > 57.5 µM (inactive) | > 100 µM (inactive) | > 100 µM (inactive) | > 100 µM (inactive) | > 100 µM (inactive) | > 100 µM (inactive) | > 100 µM (inactive)
CSc1nc(NC2OC(COC(C)=O)C(OC(C)=O)C(OC(C)=O)C2OC(C)=O)c(-c2csc(N)n2)c(=O)n1C (configuration not stated) | 18.5 µM (inactive) | 31.5 µM (inactive) | > 100 µM (inactive) | – | 34.1 µM (inactive) | > 100 µM (inactive) | > 100 µM (inactive) | 28.9 µM (inactive) | 39.1 µM (inactive) | 21.8 µM (inactive) | 22.5 µM (inactive) | 56.6 µM (inactive) | > 100 µM (inactive) | 39.3 µM (inactive) | > 100 µM (inactive)
CC1=C(C(=O)Nc2cc(=O)n(C)c(=O)n2C)C(c2ccco2)C(C(=O)Nc2cc(=O)n(C)c(=O)n2C)=C(C)N1 | > 100 µM (inactive) | > 100 µM (inactive) | > 100 µM (inactive) | > 100 µM (inactive) | > 100 µM (inactive) | > 100 µM (inactive) | > 100 µM (inactive) | > 100 µM (inactive) | > 100 µM (inactive) | > 100 µM (inactive) | > 100 µM (inactive) | > 100 µM (inactive) | > 100 µM (inactive) | > 100 µM (inactive) | > 100 µM (inactive)
COC(=O)C(=O)C(C#N)c1cccc2ccccc12 (configuration not stated) | > 100 µM (inactive) | > 100 µM (inactive) | > 100 µM (inactive) | > 100 µM (inactive) | > 100 µM (inactive) | > 100 µM (inactive) | > 100 µM (inactive) | > 100 µM (inactive) | – | > 100 µM (inactive) | > 100 µM (inactive) | > 100 µM (inactive) | – | > 100 µM (inactive) | > 100 µM (inactive)
COc1cc2c(c(OC)c1)C1(CC(CC#N)C2)SCCS1 (configuration not stated) | > 100 µM (inactive) | > 100 µM (inactive) | > 100 µM (inactive) | > 100 µM (inactive) | > 100 µM (inactive) | > 100 µM (inactive) | > 100 µM (inactive) | > 100 µM (inactive) | > 100 µM (inactive) | > 100 µM (inactive) | > 100 µM (inactive) | > 100 µM (inactive) | > 100 µM (inactive) | – | –
NCCCCN(CCCN)/[N+]([O-])=N\O | > 100 µM (inactive) | > 100 µM (inactive) | > 100 µM (inactive) | > 100 µM (inactive) | > 100 µM (inactive) | > 100 µM (inactive) | > 100 µM (inactive) | > 100 µM (inactive) | > 100 µM (inactive) | > 100 µM (inactive) | > 100 µM (inactive) | > 100 µM (inactive) | – | > 100 µM (inactive) | > 100 µM (inactive)
O=C(Nc1ccn(CCI)c(=O)n1)c1ccccc1 | > 100 µM (inactive) | > 100 µM (inactive) | > 100 µM (inactive) | – | > 100 µM (inactive) | > 100 µM (inactive) | – | > 100 µM (inactive) | > 100 µM (inactive) | > 100 µM (inactive) | > 100 µM (inactive) | – | > 100 µM (inactive) | – | > 100 µM (inactive)
CC(O)C(N/C=C1/N=C(c2ccccc2)OC1=O)C(=O)O (configuration not stated) | > 100 µM (inactive) | > 100 µM (inactive) | > 100 µM (inactive) | > 100 µM (inactive) | > 100 µM (inactive) | > 100 µM (inactive) | – | > 100 µM (inactive) | > 100 µM (inactive) | > 100 µM (inactive) | > 100 µM (inactive) | > 100 µM (inactive) | > 100 µM (inactive) | > 100 µM (inactive) | > 100 µM (inactive)
O=C(c1ccccn1)c1nc(-c2ccc(Cl)c(Cl)c2)nc2ccc(Cl)cc12 | 44.6 µM (inactive) | 44.3 µM (inactive) | – | > 100 µM (inactive) | 35 µM (inactive) | 92 µM (inactive) | 58.6 µM (inactive) | 32.3 µM (inactive) | 50.4 µM (inactive) | 40.2 µM (inactive) | – | – | 67 µM (inactive) | 20.3 µM (inactive) | > 100 µM (inactive)
COC(=O)/C=C/C1C2C3(CCC(C)C12C)OCCS3 (configuration not stated) | > 100 µM (inactive) | > 100 µM (inactive) | > 100 µM (inactive) | > 100 µM (inactive) | > 100 µM (inactive) | > 100 µM (inactive) | 40.6 µM (inactive) | > 100 µM (inactive) | > 100 µM (inactive) | > 100 µM (inactive) | > 100 µM (inactive) | > 100 µM (inactive) | > 100 µM (inactive) | > 100 µM (inactive) | > 100 µM (inactive)
